Results as given in US8466089B2, “Pyrazole compounds, process for their production and herbicides containing them” (Ishihara Sangyo Kaisha, Ltd., priority 2008, dated 2013).

Key:
Assay type in all cases: in vivo
[1] = tested on: barnyardgrass (Echinochloa crus-galli L.); assay: Test Example 1, foliar treatment in upland pots; details: 20th to 22nd day after application, visual, read-out: Growth inhibition rate (%) Barnyardgrass
Description: Upland field soil was put into a 1/170,000 hectare pot, and seeds of various plants were sown. When the respective plants reached predetermined leaf stage ((1) barnyardgrass (Echinochloa crus-galli L.): 1.2 to 3.0 leaf stage, (2) crabgrass (Digitaria sanguinalis L.): 1.0 to 3.0 leaf stage, (3) green foxtail (Setaria viridis L.): 1.5 to 3.0 leaf stage, (4) redroot pigweed (Amaranthus retroflexus L.): cotyledon stage to 1.5 leaf stage, (5) prickly sida (Sida spinosa L.): cotyledon stage to 2.0 leaf stage, (6) velvetleaf (Abutilon theophrasti MEDIC.): cotyledon stage to 1.3 leaf stage, (7) rice (Oryza sativa L.): 1.2 to 2.5 leaf stage, (8) corn (Zea mays L.): 2.0 to 3.3 leaf stage, (9) soybean (Glycine max Merr.): primary leaf stage to 0.3 leaf stage) and wheat (Triticum spp.): 2.0 to 3.0 leaf stage, wettable powders or emulsifiable concentrates of the compounds of the present invention prepared in accordance with a conventional preparation method, were weighed so that the active ingredients became the prescribed amounts, and diluted with water in an amount corresponding to 500 liter per 1 hectare (containing 0.1 vol % of an agricultural spreader (“KUSARINOH”, manufactured by NIHON NOHYAKU CO., LTD.)). The spray solutions thus prepared were applied for foliar treatment by a small sprayer.
On the 20th to 22nd day after application, the state of growth of the respective plants was visually observed, and the herbicidal effect was evaluated by a growth inhibition rate (%) of 0 (equivalent to the non-treated area) to 100% (complete kill).

[2] = tested on: barnyardgrass (Echinochloa crus-galli L.); assay: Test Example 2, soil application on the day after sowing; details: 21st to 22nd day after application, visual, read-out: Growth inhibition rate (%) Barnyardgrass
Description: (§1) Upland field soil was put into a 1/170,000 hectare pot, and seeds of various plants (barnyardgrass (Echinochloa crus-galli L.), crabgrass (Digitaria sanquinalis L.), green foxtail (Setaria viridis L.), redroot pigweed (Amaranthus retroflexus L.), prickly sida (Sida spinosa L.), velvetleaf (Abutilon theophrasti MEDIC.), rice (Oryza sativa L.), corn (Zea mays L.), soybean (Glycine max Merr.)) and wheat (Triticum spp.) were sown. On the day after sowing, wettable powders or emulsifiable concentrates of the compounds of the present invention prepared in accordance with a conventional preparation method, were weighed so that the active ingredients became the prescribed amounts, and diluted with water in an amount corresponding to 500 liter per 1 hectare, followed by soil application with a small sprayer.
(§2) On the 21st to 22nd day after the application, the state of growth of the respective plants was visually observed, and the herbicidal effect was evaluated by a growth inhibition rate (%) of from 0 (equivalent to the non-treated area) to 100% (complete kill).

corn (Zea mays L.) = assay: as above; details: 21st to 22nd day after application, visual, read-out: Growth inhibition rate (%) Corn
Description: as §1, §2

[3] = tested on: crabgrass (Digitaria sanquinalis L.); assay: as above; details: 21st to 22nd day after application, visual, read-out: Growth inhibition rate (%) Crabgrass
Description: as §1, §2

[4] = tested on: green foxtail (Setaria viridis L.); assay: as above; details: 21st to 22nd day after application, visual, read-out: Growth inhibition rate (%) Green foxtail
Description: as §1, §2

[5] = tested on: prickly sida (Sida spinosa L.); assay: as above; details: 21st to 22nd day after application, visual, read-out: Growth inhibition rate (%) Prickly sida
Description: as §1, §2

[6] = tested on: redroot pigweed (Amaranthus retroflexus L.); assay: as above; details: 21st to 22nd day after application, visual, read-out: Growth inhibition rate (%) Redroot pigweed
Description: as §1, §2

rice (Oryza sativa L.) = assay: as above; details: 21st to 22nd day after application, visual, read-out: Growth inhibition rate (%) Rice
Description: as §1, §2

[7] = tested on: soybean (Glycine max Merr.); assay: as above; details: 21st to 22nd day after application, visual, read-out: Growth inhibition rate (%) Soybean
Description: as §1, §2

[8] = tested on: velvetleaf (Abutilon theophrasti MEDIC.); assay: as above; details: 21st to 22nd day after application, visual, read-out: Growth inhibition rate (%) Velvetleaf
Description: as §1, §2

wheat (Triticum spp.) = assay: as above; details: 21st to 22nd day after application, visual, read-out: Growth inhibition rate (%) Wheat
Description: as §1, §2

[9] = tested on: Japanese bulrush (Scirpus juncoides); assay: Test Example 3, paddy field pot, application to irrigated water; details: Schoenoplectiella juncoides, applied at 0.5 leaf stage, 13th to 17th day after application, read-out: Growth inhibition rate (%) Japanese bulrush
Description: (§3) Paddy field soil was put into a 1/1,000,000 hectare pot, and seeds of barnyardgrass (Echinochloa oryzicola vasing.) and Japanese bulrush (Scirpus juncoides) were sown and lightly covered with soil. Then, pot was left to stand in a greenhouse in a state irrigated to a water depth of from 0.5 to 1 cm, and next day or two days later, tubers of Japanese ribbon waparo (Sagittaria pygmaea) were planted. Then, the irrigated water depth was maintained to be from 3 to 4 cm, and when barnyardgrass and Japanese bulrush reached 0.5 leaf stage, and Japanese ribbon waparo reached primary leaf stage, a water diluted solution of a wettable powder or an emulsifiable concentrate of the compound of the present invention prepared in accordance with a conventional preparation method, was uniformly dropwise applied by a pipette so that the amount of active ingredients would be a prescribed amount. Further, paddy field soil was put into a 1/1,000,000 pot, followed by soil puddling to an irrigated water depth of from 3 to 4 cm. Next day, rice (Oryza sativa L.) (var.: Nihonbare) of two leaf stage was transplanted in a transplantation depth of 3 cm. On the 4th day after transplantation, the compound of the present invention was applied in the same manner as described above.
(§4) On the 13th to 17th day after application, the state of growth of barnyardgrass, Japanese bulrush and Japanese ribbon waparo was visually observed, and on the 20th to 23rd day after application, the state of growth of rice was visually observed, and the herbicidal effect was evaluated by a growth inhibition rate (%) of 0 (equivalent to the non-treated area) to 100% (complete kill).

[10] = tested on: Japanese ribbon waparo (Sagittaria pygmaea); assay: as above; details: applied at primary leaf stage, 13th to 17th day after application, read-out: Growth inhibition rate (%) Japanese ribbon waparo
Description: as §3, §4

[11] = tested on: barnyardgrass (Echinochloa oryzicola vasing.); assay: as above; details: applied at 0.5 leaf stage, 13th to 17th day after application, read-out: Growth inhibition rate (%) barnyard grass
Description: as §3, §4

CCCn1ncc(C(=O)c2ccc(S(C)(=O)=O)c(OCCOC)c2C)c1OC(C)OC(=O)OCC (stereo not shown) [Compound No. 3-1, Ethyl 1-(1-n-propyl-4-(3-(2-methoxyethoxy)-2-methyl-4-(methylsulfonyl)benzoyl)-1H-pyrazol-5-yloxy)ethyl carbonate]
inhibition at 7 g/ha [1]: 70% | inhibition at 250 g/ha [2]: 60% | inhibition at 250 g/ha (corn (Zea mays L.)): 0% | inhibition at 250 g/ha [3]: 80% | inhibition at 250 g/ha [4]: 60% | inhibition at 250 g/ha [5]: 80% | inhibition at 250 g/ha [6]: 40% | inhibition at 250 g/ha (rice (Oryza sativa L.)): 20% | inhibition at 250 g/ha [7]: 0% | inhibition at 250 g/ha [8]: 80% | inhibition at 250 g/ha (wheat (Triticum spp.)): 10% | inhibition at 63 g/ha [9]: 90% | inhibition at 63 g/ha [10]: 95% | inhibition at 63 g/ha [11]: 100%

CCCn1ncc(C(=O)c2ccc(S(C)(=O)=O)c(OCCOC)c2C)c1O [Compound No. 7-1, (5-Hydroxy-1-n-propyl-1H-pyrazol-4-yl)(3-(2-methoxyethoxy)-2-methyl-4-(methylsulfonyl)phenyl)ketone]
inhibition at 7 g/ha [1]: 60% | inhibition at 250 g/ha [2]: 98% | inhibition at 250 g/ha (corn (Zea mays L.)): 0% | inhibition at 250 g/ha [3]: 100% | inhibition at 250 g/ha [4]: 90% | inhibition at 250 g/ha [5]: 80% | inhibition at 250 g/ha [6]: 100% | inhibition at 250 g/ha (rice (Oryza sativa L.)): 98% | inhibition at 250 g/ha [7]: 20% | inhibition at 250 g/ha [8]: 95% | inhibition at 250 g/ha (wheat (Triticum spp.)): 40% | inhibition at 63 g/ha [9]: 70% | inhibition at 63 g/ha [10]: 90% | inhibition at 63 g/ha [11]: 30%

CCOC(=O)OC(C)Oc1c(C(=O)c2ccc(S(C)(=O)=O)c(OCCOC(C)C)c2C)cnn1C (stereo not shown) [Compound No. 1-5, Ethyl 1-(4-(3-(2-isopropoxyethoxy)-2-methyl-4-(methylsulfonyl)benzoyl)-1-methyl-1H-pyrazol-5-yloxy)ethyl carbonate]
inhibition at 7 g/ha [1]: 95% | inhibition at 250 g/ha [2]: 100% | inhibition at 250 g/ha (corn (Zea mays L.)): 10% | inhibition at 250 g/ha [3]: 95% | inhibition at 250 g/ha [4]: 100% | inhibition at 250 g/ha [5]: 90% | inhibition at 250 g/ha [6]: 100% | inhibition at 250 g/ha (rice (Oryza sativa L.)): 80% | inhibition at 250 g/ha [7]: 10% | inhibition at 250 g/ha [8]: 100% | inhibition at 250 g/ha (wheat (Triticum spp.)): 0% | inhibition at 63 g/ha [9]: 20% | inhibition at 63 g/ha [10]: 90% | inhibition at 63 g/ha [11]: 100%

COCCOc1c(S(C)(=O)=O)ccc(C(=O)c2cnn(C(C)C)c2OC(C)OC(=O)OC)c1C (stereo not shown) [Compound No. 4-1, 1-(1-Isopropyl-4-(3-(2-methoxyethoxy)-2-methyl-4-(methylsulfonyl)benzoyl)-1H-pyrazol-5-yloxy)ethyl methyl carbonate]
inhibition at 7 g/ha [1]: 90% | inhibition at 250 g/ha [2]: 100% | inhibition at 250 g/ha (corn (Zea mays L.)): 0% | inhibition at 250 g/ha [3]: 100% | inhibition at 250 g/ha [4]: 100% | inhibition at 250 g/ha [5]: 95% | inhibition at 250 g/ha [6]: 100% | inhibition at 250 g/ha (rice (Oryza sativa L.)): 98% | inhibition at 250 g/ha [7]: 0% | inhibition at 250 g/ha [8]: 100% | inhibition at 250 g/ha (wheat (Triticum spp.)): 10% | inhibition at 63 g/ha [9]: 98% | inhibition at 63 g/ha [10]: 70% | inhibition at 63 g/ha [11]: 100%

CCn1ncc(C(=O)c2ccc(S(C)(=O)=O)c(OCCOC)c2C)c1OC(C)OC(=O)OC (stereo not shown) [Compound No. 2-1, 1-(1-Ethyl-4-(3-(2-methoxyethoxy)-2-methyl-4-(methylsulfonyl)benzoyl)-1H-pyrazol-5-yloxy)ethyl methyl carbonate]
inhibition at 7 g/ha [1]: 95% | inhibition at 250 g/ha [2]: 95% | inhibition at 250 g/ha (corn (Zea mays L.)): 0% | inhibition at 250 g/ha [3]: 100% | inhibition at 250 g/ha [4]: 100% | inhibition at 250 g/ha [5]: 90% | inhibition at 250 g/ha [6]: 100% | inhibition at 250 g/ha (rice (Oryza sativa L.)): 98% | inhibition at 250 g/ha [7]: 0% | inhibition at 250 g/ha [8]: 100% | inhibition at 250 g/ha (wheat (Triticum spp.)): 0% | inhibition at 63 g/ha [9]: 80% | inhibition at 63 g/ha [10]: 80% | inhibition at 63 g/ha [11]: 100%

COC(=O)OC(C)Oc1c(C(=O)c2ccc(S(C)(=O)=O)c(C(=O)OC)c2C)cnn1C (stereo not shown) [Compound No. 1-2, Methyl 3-(5-(1-(methoxycarbonyloxy)ethoxy)-1-methyl-1H-pyrazole-4-carbonyl)-2-methyl-6-(methylsulfonyl)benzoate]
inhibition at 7 g/ha [1]: 100% | inhibition at 250 g/ha [2]: 100% | inhibition at 250 g/ha (corn (Zea mays L.)): 0% | inhibition at 250 g/ha [3]: 100% | inhibition at 250 g/ha [4]: 100% | inhibition at 250 g/ha [5]: 98% | inhibition at 250 g/ha [6]: 100% | inhibition at 250 g/ha (rice (Oryza sativa L.)): 100% | inhibition at 250 g/ha [7]: 70% | inhibition at 250 g/ha [8]: 100% | inhibition at 250 g/ha (wheat (Triticum spp.)): 20% | inhibition at 63 g/ha [9]: 70% | inhibition at 63 g/ha [10]: 95% | inhibition at 63 g/ha [11]: 100%

Cc1c(C(=O)c2cnn(C)c2O)ccc(S(C)(=O)=O)c1OCCC(C)C [Compound No. 5-1, (5-Hydroxy-1-methyl-1H-pyrazol-4-yl)(3-(2-isopropylethoxy)-2-methyl-4-(methylsulfonyl)phenyl)ketone]
inhibition at 7 g/ha [1]: 30% | inhibition at 250 g/ha [2]: 98% | inhibition at 250 g/ha (corn (Zea mays L.)): 10% | inhibition at 250 g/ha [3]: 98% | inhibition at 250 g/ha [4]: 95% | inhibition at 250 g/ha [5]: 98% | inhibition at 250 g/ha [6]: 100% | inhibition at 250 g/ha (rice (Oryza sativa L.)): 98% | inhibition at 250 g/ha [7]: 0% | inhibition at 250 g/ha [8]: 100% | inhibition at 250 g/ha (wheat (Triticum spp.)): 20% | inhibition at 63 g/ha [9]: 20% | inhibition at 63 g/ha [10]: 95% | inhibition at 63 g/ha [11]: 60%

COCCOc1c(S(C)(=O)=O)ccc(C(=O)c2c(C)nn(C)c2OC(C)OC(=O)OC)c1C (stereo not shown) [Compound No. 1-6, 1-(4-(3-(2-Methoxyethoxy)-2-methyl-4-(methylsulfonyl)benzoyl)-1,3-dimethyl-1H-pyrazol-5-yloxy)ethyl methyl carbonate]
inhibition at 7 g/ha [1]: 90% | inhibition at 250 g/ha [2]: 100% | inhibition at 250 g/ha (corn (Zea mays L.)): 0% | inhibition at 250 g/ha [3]: 100% | inhibition at 250 g/ha [4]: 70% | inhibition at 250 g/ha [5]: 99% | inhibition at 250 g/ha [6]: 100% | inhibition at 250 g/ha (rice (Oryza sativa L.)): 98% | inhibition at 250 g/ha [7]: 0% | inhibition at 250 g/ha [8]: 100% | inhibition at 250 g/ha (wheat (Triticum spp.)): 5% | inhibition at 63 g/ha [9]: 70% | inhibition at 63 g/ha [10]: 60% | inhibition at 63 g/ha [11]: 100%
